According to patent US20240300948A1, “Heterocyclic Compounds As Kinase Inhibitors” (Incyte Corporation, priority 2023, published 2024):
pIC50: −log10 of the molar value.

Key:
[1] = target: T1, catalytic domain (JH1, amino acids 826-1132) of human JAK2 (Homo sapiens, UniProt O60674); experiment: JAK2 LanthaScreen JH1 binding assay; settings: 50 nM tracer, 2 hours at 25° C., read-out: JH1 BIND IC50
T1 construct: catalytic domain (JH1, amino acids 826-1132) of human JAK2; FLAG (N); purchased Carna Biosciences 08-445-20N; host or cells: baculovirus expression system
In short: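 Binding of compounds to biotinylated, FLAG-tagged human JAK2 JH1 (aa 826-1132; 1.5 nM) was measured by LanthaScreen TR-FRET with 50 nM fluorescent tracer and 0.5 nM streptavidin-Tb, in pH 7.5 Tris buffer. Non-specific binding was defined with 2 mM ATP. After 2 h at 25 °C, IC50 was fitted from four-parameter dose-response curves.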

[2] = target: T2, pseudo-kinase domain (JH2, amino-acids 536-812 with 3 surface mutations W659A, W777A, F794H) of human Wild Type JAK2 (Homo sapiens, UniProt O60674, F794H/W659A/W777A); experiment: JAK2 LanthaScreen JH2-WT binding assay; settings: 50 nM tracer, 1 hour at 25° C., read-out: JH2 BIND WT IC50
T2 construct: pseudo-kinase domain (JH2, amino-acids 536-812 with 3 surface mutations W659A, W777A, F794H); His (C); Avi (biotinylated) (C); purchased BPS Bioscience 79463; host or cells: baculovirus expression system
In short: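 Biotinylated His-Avi-tagged JAK2 JH2 (0.145 nM), baculovirus-expressed, incubated with compounds, 50 nM fluorescent JH2 tracer and 0.25 nM streptavidin-Tb, 1 h at 25° C in pH 7.5 Tris buffer with MgCl2 and DTT. Non-specific binding defined with 2 mM ATP. TR-FRET read; IC50 from four-parameter fit.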

[3] = target: T3, pseudo-kinase domain (JH2, amino-acids 536-812 with 3 surface mutations W659A, W777A, F794H) of human V617F mutant JAK2 (Homo sapiens, UniProt O60674, F794H/V617F/W659A/W777A); experiment: JAK2 LanthaScreen JH2-V617F binding assay; settings: 50 nM tracer, 1 hour at 25° C., read-out: JH2 BIND V617F IC50
T3 construct: pseudo-kinase domain (JH2, amino-acids 536-812 with 3 surface mutations W659A, W777A, F794H); His (C); Avi (biotinylated) (C); purchased BPS Bioscience 79498; host or cells: baculovirus expression system
In short: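 IC50 values came from four-parameter dose-response fits of LanthaScreen signal, read after compounds sat 1 hour at 25° C with 0.26 nM baculovirus-expressed biotinylated protein, 50 nM fluorescent tracer and 0.25 nM streptavidin-Tb cryptate. Non-specific binding was set with 2 mM ATP.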

T2 sequence (O60674 536-812 W659A/W777A/F794H): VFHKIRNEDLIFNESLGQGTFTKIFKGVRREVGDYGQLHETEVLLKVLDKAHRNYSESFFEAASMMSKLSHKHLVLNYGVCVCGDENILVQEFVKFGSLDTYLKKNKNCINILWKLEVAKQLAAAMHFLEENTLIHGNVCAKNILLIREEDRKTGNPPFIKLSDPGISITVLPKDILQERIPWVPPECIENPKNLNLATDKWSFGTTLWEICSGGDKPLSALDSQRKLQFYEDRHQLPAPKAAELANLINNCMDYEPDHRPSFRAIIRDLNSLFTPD
T3 sequence (O60674 536-812 V617F/W659A/W777A/F794H): as the sequence (O60674 536-812 W659A/W777A/F794H) above, with V82F counted along it
T1 sequence (O60674 826-1132): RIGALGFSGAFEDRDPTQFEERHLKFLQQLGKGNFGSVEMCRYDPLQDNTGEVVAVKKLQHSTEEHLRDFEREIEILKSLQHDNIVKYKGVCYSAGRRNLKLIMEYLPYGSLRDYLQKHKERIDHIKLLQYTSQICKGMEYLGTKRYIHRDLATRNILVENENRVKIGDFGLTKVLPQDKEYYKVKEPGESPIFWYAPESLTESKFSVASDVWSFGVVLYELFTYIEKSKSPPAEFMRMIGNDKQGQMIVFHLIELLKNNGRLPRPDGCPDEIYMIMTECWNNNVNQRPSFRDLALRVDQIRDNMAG

SMILES	pIC50 [1]	pIC50 [2]	pIC50 [3]
COC(=O)N1CC2(CCC(N3C(=O)NCc4cnc5[nH]c(-c6cnn(C)c6)c(-c6ccc7c(cnn7C(C)C)c6)c5c43)CC2)C1 [Example 18, Methyl 7-(9-(1-isopropyl-1H-indazol-5-yl)-8-(1-methyl-1H-pyrazol-4-yl)-2-oxo-2,3,4,7-tetrahydro-1H-pyrrolo[3′,2′:5,6]pyrido[4,3-d]pyrimidin-1-yl)-2-azaspiro[3.5] nonane-2-carboxylate]	6.30 to 7.00	7.00 to 8.00	7.00 to 8.00
COC(=O)N[C@@H]1CC[C@@H](N2C(=O)NCc3cnc4[nH]c(-c5cnn(C)c5)c(-c5ccc6c(cnn6C)c5)c4c32)C1 [Example 29, Methyl ((1R,3R)-3-(9-(1-methyl-1H-indazol-5-yl)-8-(1-methyl-1H-pyrazol-4-yl)-2-oxo-2,3,4,7-tetrahydro-1H-pyrrolo[3′,2′:5,6]pyrido[4,3-d]pyrimidin-1-yl)cyclopentyl) carbamate]	< 6.00	≥ 8.00	7.00 to 8.00
COC(=O)N[C@@H]1CC[C@@H](N2C(=O)NCc3cnc4[nH]c(-c5cnn(C)c5)c(-c5ccc6c(cnn6C(C)C)c5)c4c32)C1 [Example 30, Methyl ((1R,3R)-3-(9-(1-isopropyl-1H-indazol-5-yl)-8-(1-methyl-1H-pyrazol-4-yl)-2-oxo-2,3,4,7-tetrahydro-1H-pyrrolo[3′,2′:5,6]pyrido[4,3-d]pyrimidin-1-yl)cyclopentyl) carbamate]	< 6.00	≥ 8.00	≥ 8.00
COC(=O)N1CCC(N2C(=O)NCc3cnc4[nH]c(-c5cnn(C)c5)c(-c5ccc6c(cnn6C(C)C)c5)c4c32)CC1 [Example 14, Methyl 4-(9-(1-isopropyl-1H-indazol-5-yl)-8-(1-methyl-1H-pyrazol-4-yl)-2-oxo-2,3,4,7-tetrahydro-1H-pyrrolo[3′,2′:5,6]pyrido[4,3-d]pyrimidin-1-yl)piperidine-1-carboxylate]	< 6.00	7.00 to 8.00	7.00 to 8.00
COC(=O)N[C@@H]1CC[C@@H](N2C(=O)NCc3cnc4[nH]c(-c5cnn(C)c5)c(-c5ccc6c(cnn6CCF)c5)c4c32)C1 [Example 25, Methyl ((1R,3R)-3-(9-(1-(2-fluoroethyl)-1H-indazol-5-yl)-8-(1-methyl-1H-pyrazol-4-yl)-2-oxo-2,3,4,7-tetrahydro-1H-pyrrolo[3′,2′:5,6]pyrido [4,3-d]pyrimidin-1-yl)cyclopentyl) carbamate]	6.30 to 7.00	≥ 8.00	7.00 to 8.00
COC(=O)N[C@@H]1CC[C@@H](N2C(=O)NCc3cnc4[nH]c(-c5cnn(C)c5)c(-c5cccc(F)c5)c4c32)C1 [Example 31, Methyl ((1R,3R)-3-(9-(3-fluorophenyl)-8-(1-methyl-1H-pyrazol-4-yl)-2-oxo-2,3,4,7-tetrahydro-1H-pyrrolo[3′,2′:5,6]pyrido[4,3-d]pyrimidin-1-yl)cyclopentyl) carbamate]	< 6.00	7.00 to 8.00	6.30 to 7.00
CC(C)n1ncc2cc(-c3c(-c4cnn(C)c4)[nH]c4ncc5c(c34)N([C@H]3C[C@@H](NC(=O)Cc4ccn(C)n4)C3)C(=O)NC5)ccc21 [Example 21, N-((1s,3s)-3-(9-(1-Isopropyl-1H-indazol-5-yl)-8-(1-methyl-1H-pyrazol-4-yl)-2-oxo-2,3,4,7-tetrahydro-1H-pyrrolo[3′,2′:5,6]pyrido[4,3-d]pyrimidin-1-yl)cyclobutyl)-2-(1-methyl-1H-pyrazol-3-yl)acetamide]	6.00 to 6.30	7.00 to 8.00	7.00 to 8.00
CC(=O)N1CCC(N2C(=O)NCc3cnc4[nH]c(-c5cnn(C)c5)c(-c5ccc6c(cnn6C(C)C)c5)c4c32)CC1 [Example 15, 1-(1-Acetylpiperidin-4-yl)-9-(1-isopropyl-1H-indazol-5-yl)-8-(1-methyl-1H-pyrazol-4-yl)-1,3,4,7-tetrahydro-2H-pyrrolo [3′,2′:5,6]pyrido[4,3-d]pyrimidin-2-one]	< 6.00	7.00 to 8.00	7.00 to 8.00
COC(=O)N[C@@H]1CC[C@@H](N2C(=O)NCc3cnc4[nH]c(-c5cnn(C)c5)c(-c5ccc6c(c5)COC6(C)C)c4c32)C1 [Example 26, Methyl ((1R,3R)-3-(9-(1,1-dimethyl-1,3-dihydroisobenzof uran-5-yl)-8-(1-methyl-1H-pyrazol-4-yl)-2-oxo-2,3,4,7-tetrahydro-1H-pyrrolo[3′,2′:5,6]pyrido[4,3-d]pyrimidin-1-yl)cyclopentyl)ca rbamate]	6.00 to 6.30	≥ 8.00	≥ 8.00
